Source: patent US8067599B2 (Hoffman-La Roche Inc., priority 2006, dated 2011)
Where a name gives a salt, the structure may show the parent alone.

Key:
HCT 116 cells = experiment: CellTiter-Glo assay in HCT 116 cells (antiproliferative activity); type: cell-based; details: Homo sapiens, HCT-116, 120 h, cell viability after 5 days
Experimental: The CellTiter-Glo™ Luminescent Cell Viability Assay (Promega) is a homogeneous method of determining the number of viable cells in culture based on quantitation of the ATP present, which signals the presence of metabolically active cells.
HCT 116 cells (human colon carcinoma, ATCC-No. CCl-247) were cultivated in RPMI 1640 medium with GlutaMAX™ 1 (Invitrogen, Cat-No. 61870-010), 5% Fetal Calf Serum (FCS, Sigma Cat-No. F4135 (FBS)); 100 Units/ml penicillin/100 μg/ml streptomycin (=Pen/Strep from Invitrogen Cat. No. 15140). For the assay the cells were seeded in 384 well plates, 1000 cells per well, in the same medium. The next day the test compounds were added in various concentrations ranging from 30 μM to 0.0015 μM (10 concentrations, 1:3 diluted). After 5 days the CellTiter-Glo™ assay was done according to the instructions of the manufacturer (CellTiter-Glo™ Luminescent Cell Viability Assay, from Promega). In brief: the cell-plate was equilibrated to room temperature for approximately 30 minutes and than the CellTiter-Glo™ reagent was added. The contents were carefully mixed for 15 minutes to induce cell lysis. After 45 minutes the luminescent signal was measured in Victor 2, (scanning multiwell spectrophotometer, Wallac).
• Medium: RPMI 1640 with GlutaMAX™ 1 (Invitrogen, Cat-No. 61870), 5% FCS (Sigma Cat.-No. F4135), Pen/Strep (Invitrogen, Cat No. 15140). • HCT116 (ATCC-No. CCl-247): 1000 cells in 60 μl per well of 384 well plate (Greiner 781098, μClear-plate white) • After seeding incubate plates 24 h at 37° C., 5% CO2 2nd. Day: Induction (Treatment with Compounds, 10 Concentrations):
In order to achieve a final concentration of 30 μM as highest concentration 3.5 μl of 10 mM compound stock solution were added directly to 163 μl media. Then step e) of the dilution procedure described below, was followed.

[1] = target: human recombinant PDGFR beta (Homo sapiens, UniProt P09619); experiment: IC50 determination for inhibitors of PDGFR kinase (IMAP fluorescence polarization); type: biochemical; details: 48 uM ATP, room temperature, 60 minutes, read-out: IC50 PDGFR kinase inhibition
Sequence of human recombinant PDGFR beta (P09619 33-1106): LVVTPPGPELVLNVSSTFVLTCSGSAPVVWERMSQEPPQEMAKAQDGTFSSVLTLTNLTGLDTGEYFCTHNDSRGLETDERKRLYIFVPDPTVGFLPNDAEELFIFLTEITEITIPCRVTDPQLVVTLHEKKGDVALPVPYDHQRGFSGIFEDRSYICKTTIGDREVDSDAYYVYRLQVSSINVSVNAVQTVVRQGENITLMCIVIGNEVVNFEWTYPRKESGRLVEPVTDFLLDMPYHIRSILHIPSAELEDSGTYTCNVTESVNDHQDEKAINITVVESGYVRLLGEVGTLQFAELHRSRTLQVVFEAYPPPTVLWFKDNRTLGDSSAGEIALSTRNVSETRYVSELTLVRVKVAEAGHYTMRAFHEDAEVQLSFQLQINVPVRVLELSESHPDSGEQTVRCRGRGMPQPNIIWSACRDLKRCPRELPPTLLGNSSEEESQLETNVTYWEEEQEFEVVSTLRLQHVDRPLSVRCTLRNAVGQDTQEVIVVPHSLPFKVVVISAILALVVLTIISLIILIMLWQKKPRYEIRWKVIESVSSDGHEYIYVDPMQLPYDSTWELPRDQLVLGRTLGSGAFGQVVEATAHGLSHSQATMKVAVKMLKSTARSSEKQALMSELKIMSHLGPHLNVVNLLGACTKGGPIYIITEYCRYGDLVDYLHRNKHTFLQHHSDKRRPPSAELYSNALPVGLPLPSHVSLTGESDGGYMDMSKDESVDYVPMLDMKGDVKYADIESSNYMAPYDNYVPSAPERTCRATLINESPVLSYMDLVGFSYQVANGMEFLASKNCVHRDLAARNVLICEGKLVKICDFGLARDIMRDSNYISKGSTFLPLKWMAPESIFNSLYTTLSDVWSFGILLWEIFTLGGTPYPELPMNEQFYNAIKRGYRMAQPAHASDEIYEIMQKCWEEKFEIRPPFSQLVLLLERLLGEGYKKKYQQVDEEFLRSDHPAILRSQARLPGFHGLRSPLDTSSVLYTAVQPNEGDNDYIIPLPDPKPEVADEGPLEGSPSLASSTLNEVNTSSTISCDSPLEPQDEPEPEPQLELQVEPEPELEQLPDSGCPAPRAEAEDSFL
Experimental: PDGFR assay was carried out with human recombinant PDGFR beta, fluorescein labeled peptide substrate (with a peptide sequence of ALTSNQEYLDLSMPL) and test compounds (in serial dilution) using 384-well plates. Kinase reaction was performed in MOPS buffer (20 mM MOPS pH 7.1, 5 mM Sodium Acetate, 6.25 mM MgCl2, 0.5 mM EDTA, 1 mM DTT, 0.04 mM NaVO4, 0.02% BSA), in the presence of 48 uM ATP, incubated at room temperature for 60 minutes. Reaction was stopped by IMAP Bead Binding System (Molecular Devices). After incubation at room temperature for 2 hours, the reaction product was analyzed on LJL Acquest.
(§1) FP reading (in mP) was used to calculate reaction rate. The assay was semi-automated by Tomtec Quadra workstation.

[2] = target: T1, mouse full-length Src protein (Mus musculus, UniProt P05480); experiment: IC50 determination for inhibitors of Src kinase (IMAP fluorescence polarization); type: biochemical; details: 24 uM ATP, 37° C., 60 minutes; read-out: IC50 Src kinase inhibition
T1 construct: mouse full-length Src protein
T1 sequence (P05480 whole entry): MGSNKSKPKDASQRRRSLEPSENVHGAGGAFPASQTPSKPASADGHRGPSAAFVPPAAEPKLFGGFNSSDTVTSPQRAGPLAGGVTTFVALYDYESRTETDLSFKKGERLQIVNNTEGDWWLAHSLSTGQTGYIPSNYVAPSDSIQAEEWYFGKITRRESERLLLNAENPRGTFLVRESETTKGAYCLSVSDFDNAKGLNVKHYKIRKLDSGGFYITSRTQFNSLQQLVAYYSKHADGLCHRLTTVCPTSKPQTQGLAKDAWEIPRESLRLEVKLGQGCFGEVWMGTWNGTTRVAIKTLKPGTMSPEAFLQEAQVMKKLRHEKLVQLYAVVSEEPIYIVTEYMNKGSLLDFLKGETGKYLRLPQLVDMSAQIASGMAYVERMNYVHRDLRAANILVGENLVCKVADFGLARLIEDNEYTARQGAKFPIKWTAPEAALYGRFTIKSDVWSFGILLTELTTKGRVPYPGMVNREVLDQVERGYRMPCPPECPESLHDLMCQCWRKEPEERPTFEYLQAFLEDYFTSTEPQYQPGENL
Experimental: Src assay was done using mouse full-length Src protein, fluorescein labeled peptide substrate (with a sequence of KVEKIGEGTYGVVYK) and quantified by Molecular Devices' IMAP fluorescence polarization technology. Compounds were tested in serially diluted concentrations in 384 well plates. Kinase reaction was performed in KAB Buffer (10 mM HEPES, pH 7, 50 mM NaCl, 5 mM MgCl2, 1 mM DTT, 0.1 mM NaVO4, 0.02% BSA), in the presence of 24 uM ATP, incubated at 37° C. for 60 minutes. Reaction was stopped by IMAP bead mix (at 1:400 dilution). After incubation at room temperature for 2 hours, the reaction product was analyzed on LJL Acquest (excitation 485 nm and Emission 530 nm).
as §1

[3] = target: T2, fusion protein corresponding to mouse Abl (27-end) (Mus musculus, UniProt P00520); experiment: IC50 determination for inhibitors of Abl kinase (IMAP fluorescence polarization); type: biochemical; details: 22.8 uM ATP, 37° C., 60 minutes; read-out: IC50 Abl kinase inhibition
T2 construct: fusion protein corresponding to mouse Abl (27-end)
T2 sequence (P00520 27-1123 limits assumed): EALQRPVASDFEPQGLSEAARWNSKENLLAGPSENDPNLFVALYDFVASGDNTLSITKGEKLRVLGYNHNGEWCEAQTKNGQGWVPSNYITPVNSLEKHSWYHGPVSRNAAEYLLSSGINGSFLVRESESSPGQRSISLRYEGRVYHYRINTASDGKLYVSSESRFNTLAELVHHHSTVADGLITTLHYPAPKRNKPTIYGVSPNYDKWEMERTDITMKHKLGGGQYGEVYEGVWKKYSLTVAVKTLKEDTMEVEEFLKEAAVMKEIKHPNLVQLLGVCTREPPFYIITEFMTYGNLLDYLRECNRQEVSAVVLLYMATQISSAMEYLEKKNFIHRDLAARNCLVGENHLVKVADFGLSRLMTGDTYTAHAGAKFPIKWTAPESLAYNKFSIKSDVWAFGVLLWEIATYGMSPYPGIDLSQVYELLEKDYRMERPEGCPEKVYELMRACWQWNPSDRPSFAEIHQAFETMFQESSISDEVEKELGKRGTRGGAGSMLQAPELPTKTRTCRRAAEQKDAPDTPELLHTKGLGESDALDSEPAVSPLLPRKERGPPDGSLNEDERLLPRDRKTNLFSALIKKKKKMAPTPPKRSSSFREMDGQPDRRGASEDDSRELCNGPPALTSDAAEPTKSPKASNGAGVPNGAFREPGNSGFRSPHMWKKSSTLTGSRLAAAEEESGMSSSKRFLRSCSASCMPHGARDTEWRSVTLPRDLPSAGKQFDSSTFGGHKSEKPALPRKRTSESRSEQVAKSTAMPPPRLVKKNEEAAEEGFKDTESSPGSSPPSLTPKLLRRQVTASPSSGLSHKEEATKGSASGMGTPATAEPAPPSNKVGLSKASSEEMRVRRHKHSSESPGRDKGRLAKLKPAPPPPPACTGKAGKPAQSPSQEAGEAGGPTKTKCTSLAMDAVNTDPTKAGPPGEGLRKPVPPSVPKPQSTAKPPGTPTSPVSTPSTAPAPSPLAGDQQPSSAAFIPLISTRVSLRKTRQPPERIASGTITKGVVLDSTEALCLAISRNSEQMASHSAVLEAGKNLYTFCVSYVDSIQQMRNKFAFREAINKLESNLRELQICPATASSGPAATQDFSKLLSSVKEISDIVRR
Experimental: Abl assay was done using fusion protein corresponding to mouse Abl (27-end), fluorescein labeled peptide substrate (with a sequence of EAIYAAPFAKKK) and quantified by Molecular Devices' IMAP fluorescence polarization technology. Compounds were tested in serially diluted concentrations in 384 well plates. Kinase reaction was performed in KAB Buffer (10 mM HEPES, pH 7, 50 mM NaCl, 5 mM MgCl2, 1 mM DTT, 0.1 mM NaVO4, 0.02% BSA), in the presence of 22.8 uM ATP, incubated at 37° C. for 60 minutes. Reaction was stopped by IMAP bead mix (at 1:400 diluted). After incubation at room temperature for 3 hours, the reaction product was analyzed on LJL Acquest (excitation 485 nm and Emission 530 nm).
FP reading (in mP) was used to calculate reaction rate. The assay was semi automated by Tomtec Quadra workstation.

Row | SMILES | IC50 (HCT 116 cells) [nM] | IC50 [1] [nM] | IC50 [2] [nM] | IC50 [3] [nM]
1 | CN(C)CCOc1cccc(-c2ccc(C(=O)Nc3ccc(Cl)c(C(=O)Nc4cnc5[nH]ccc5c4)c3)cc2)c1 [Example 1-1] | 1810 | 10 to 1000 | 5 to 1000 | 5 to 1000
2 | COc1ccc([C@H]2C[C@@H]2C(=O)Nc2ccc(Cl)c(C(=O)Nc3cnc4[nH]ccc4c3)c2)cc1 [Example 4-7, 2-Chloro-5-{[(1S,2S)-2-(4-methoxy-phenyl)-cyclopropanecarbonyl]-amino}-N-(1H-pyrrolo[2,3-b]pyridin-5-yl)-benzamide] | 100 to 10000 |  |  | 
3 | CC(C)(C#N)c1cccc(C(=O)Nc2ccc(Cl)c(C(=O)Nc3cnc4[nH]ccc4c3)c2)c1 [Example 4-6, 2-Chloro-5-[3-(cyano-dimethyl-methyl)-benzoylamino]-N-(1H-pyrrolo[2,3-b]pyridin-5-yl)-benzamide] | 100 to 10000 |  |  | 5 to 1000
4 | CC(Sc1cccc(-c2ccc(C(=O)Nc3ccc(Cl)c(C(=O)Nc4cnc5[nH]ccc5c4)c3)cc2)c1)C(N)=O (stereo not drawn) [Example 1-2, 3′-(1-Carbamoyl-ethylsulfanyl)-biphenyl 4 carboxylic acid [4-chloro 3 (1H-pyrrolo[2,3-b]pyridin-5-ylcarbamoyl)-phenyl]-amide] | 100 to 10000 |  |  | 
5 | COc1ccccc1/C=C/C(=O)Nc1ccc(Cl)c(C(=O)Nc2cnc3[nH]ccc3c2)c1 [Example 4-4, 2-Chloro-5-[(E)-3-(2-methoxy-phenyl)-acryloylamino]-N-(1H-pyrrolo[2,3-b]pyridin-5-yl)-benzamide] | 100 to 10000 |  |  | 
6 | CC(C)(C)Oc1ccc(C(=O)Nc2ccc(Cl)c(C(=O)Nc3cnc4[nH]ccc4c3)c2)cc1 [Example 4-5, 5-(4-tert-Butoxy-benzoylamino)-2-chloro-N-(1H-pyrrolo[2,3-b]pyridin-5-yl)-benzamide] | 380 |  | 5 to 1000 | 5 to 1000
7 | Cc1ccc(NC(=O)c2cccc(-c3ccccc3)c2)cc1C(=O)Nc1cnc2[nH]cnc2c1 [Example 6-2, Biphenyl-3-carboxylic acid [3-(3H-imidazo[4,5-b]pyridin-6-ylcarbamoyl)-4-methyl-phenyl]-amide] |  | 1120 | 5 to 1000 | 
8 | O=C(Nc1ccc(Cl)c(C(=O)Nc2cnc3[nH]ccc3c2)c1)c1cccc(N2CCOCC2)c1 [Example 4-3, 2-Chloro-5-(3-morpholin-4-yl-benzoylamino)-N-(1H-pyrrolo[2,3-b]pyridin-5-yl)-benzamide] | 100 to 10000 |  | 5 to 1000 | 5 to 1000
9 | O=C(Nc1ccc(Cl)c(C(=O)Nc2cnc3[nH]ccc3c2)c1)c1cc(-c2ccccc2Cl)no1 [Example 4-1, 3-(2-Chloro-phenyl)-isoxazole-5-carboxylic acid[4-chloro-3-(1H-pyrrolo[2,3-b]pyridin-5-ylcarbamoyl)-phenyl]-amide] | 100 to 10000 |  |  | 5 to 1000
10 | Cc1n[nH]c(C)c1-c1ccccc1C(=O)Nc1ccc(Cl)c(C(=O)Nc2cnc3[nH]ccc3c2)c1 [Example 3-1] |  |  | 5 to 1000 | 
11 | O=C(Nc1ccc(Cl)c(C(=O)Nc2cnc3[nH]ccc3c2)c1)c1ccc(-c2ccccc2)cc1 [Example 2-2, Biphenyl-4-carboxylic acid [4-chloro-3-(1H-pyrrolo[2,3-b]pyridin-5-ylcarbamoyl)-phenyl]-amide] | 100 to 10000 | 10 to 1000 | 5 to 1000 | 63
12 | O=C(Nc1ccc(Cl)c(C(=O)Nc2cnc3[nH]ccc3c2)c1)c1ccc(N2CCOCC2)cc1 [Example 2-3, 2-Chloro-5-(4-morpholin-4-yl-benzoylamino)-N-(1H-pyrrolo[2,3-b]pyridin-5-yl)-benzamide] | 100 to 10000 | 10 to 1000 | 189 | 5 to 1000
13 | Cc1ccc(NC(=O)c2ccccc2)cc1C(=O)Nc1cnc2[nH]cnc2c1 [Example 6-1, 5-benzoylamino-N-(3H-imidazo[4,5-b]pyridin-6-yl)-2-methyl-benzamide] |  |  | 10 | 5 to 1000
14 | Cc1c(C(=O)Nc2ccc(Cl)c(C(=O)Nc3cnc4[nH]ccc4c3)c2)cnn1-c1ccccc1 [Example 4-2, 5-Methyl-1-phenyl-1H-pyrazole-4-carboxylic acid [4-chloro-3-(1H-pyrrolo[2,3-b]pyridin-5-ylcarbamoyl)-phenyl]-amide] |  |  | 5 to 1000 | 5 to 1000
15 | Cc1ccc(NC(=O)c2ccc(-c3ccccc3)cc2)cc1C(=O)Nc1cnc2[nH]cnc2c1 [Example 6-3, Biphenyl-4-carboxylic acid [3-(3H-imidazo[4,5-b]pyridin-6-ylcarbamoyl)-4-methyl-phenyl]-amide] |  |  | 5 to 1000 | 

Now from value to molecule:

Row | IC50 (HCT 116 cells) [nM] | IC50 [1] [nM] | IC50 [2] [nM] | IC50 [3] [nM] | SMILES
16 | 100 to 10000 |  |  |  | CN1C(=O)CSc2cc(NC(=O)c3ccc(Cl)c(C(=O)Nc4cnc5[nH]ccc5c4)c3)ccc21 [Example 8-8, 4-Chloro-N^1-(4-methyl-3-oxo-3,4-dihydro-2H-benzo[1,4]thiazin-7-yl)-N^3-(1H-pyrrolo[2,3-b]pyridin-5-yl)-isophthalamide hydrochloride]
17 | 100 to 10000 |  |  |  | O=C(Nc1ccc(Oc2ccccc2)nc1)c1ccc(Cl)c(C(=O)Nc2cnc3[nH]ccc3c2)c1 [Example 8-1, 4-Chloro-N^1-(6-phenoxy-pyridin-3-yl)-N^3-(1H-pyrrolo[2,3-b]pyridin-5-yl)-isophthalamide hydrochloride]
18 | 100 to 10000 |  |  |  | O=C(Nc1cccc(-n2cccn2)c1)c1ccc(Cl)c(C(=O)Nc2cnc3[nH]ccc3c2)c1 [Example 8-5, 4-Chloro-N^1-(3-pyrazol-1-yl-phenyl)-N^3-(1H-pyrrolo[2,3-b]pyridin-5-yl)-isophthalamide hydrochloride]
19 | 100 to 10000 |  |  |  | O=C(Nc1nc2c(c(C(F)(F)F)n1)CCCC2)c1ccc(Cl)c(C(=O)Nc2cnc3[nH]ccc3c2)c1 [Example 8-2, 4-Chloro-N^3-(1H-pyrrolo[2,3-b]pyridin-5-yl)-N^1-(4-trifluoromethyl-5,6,7,8-tetrahydro-quinazolin-2-yl)-isophthalamide hydrochloride]
20 | 100 to 10000 |  |  |  | CC(C)(C#N)c1cccc(NC(=O)c2ccc(Cl)c(C(=O)Nc3cnc4[nH]ccc4c3)c2)c1 [Example 8-7, 4-Chloro-N^1-[3-(cyano-dimethyl-methyl)-phenyl]-N^3-(1H-pyrrolo[2,3-b]pyridin-5-yl)-isophthalamide hydrochloride]
21 | 100 to 10000 |  |  |  | O=C(N[C@H]1C[C@@H]1c1ccccc1)c1ccc(Cl)c(C(=O)Nc2cnc3[nH]ccc3c2)c1 [Example 8-3, 4-Chloro-N^1-((1S,2R)-2-phenyl-cyclopropyl)-N^3-(1H-pyrrolo[2,3-b]pyridin-5-yl)-isophthalamide hydrochloride]
22 |  | 10 to 1000 | 5 to 1000 | 831 | O=C(Nc1ccc(N2CCOCC2)cc1)c1ccc(Cl)c(C(=O)Nc2cnc3[nH]ccc3c2)c1 [Example 7-1, 4-Chloro-N^1-(4-morpholin-4-yl-phenyl)-N^3-(1H-pyrrolo[2,3-b]pyridin-5-yl)-isophthalamide]
